# In patent publication US20230053540A1, “TREATMENT OF LIVER INJURY” (Massachusetts Institute of Technology, priority 2019, published 2023):
# Tested on: hepatocytes
# Assay: Seq-Well scRNA-Seq of hepatocytes after APAP overdose (signature scores, DEG vs untreated)
# Type: in vivo, mouse
smiles,measurement,setting,value
"CC(=O)Nc1ccc(O)cc1 [APAP, acetaminophen]",S100a9 pct.1,A6,0.399
same,Saa4 pct.1,A6,0.437
same,Sat1 pct.1,A6,0.47
same,Scp2 pct.1,A6,0.866
same,Sdc4 pct.1,A6,0.909
same,Sec1412 pct.1,A6,0.484
same,Selenbp2 pct.1,A6,0.609
same,Serpina1a pct.1,A6,0.914
same,Serpina3m pct.1,A6,0.85
same,Serpina3n pct.1,A6,0.747
same,Slc16a6 pct.1,A6,0.47
same,Slc22a1 pct.1,A6,0.36
same,Slc25a47 pct.1,A6,0.869
same,Slc39a14 pct.1,A6,0.678
same,Sod1 pct.1,A6,0.931
same,Sqstm1 pct.1,A6,0.859
same,Srgn pct.1,A6,0.284
same,Srxn1 pct.1,A6,0.821
same,St3gal1 pct.1,A6,0.473
same,St3gal5 pct.1,A6,0.706
same,Stat3 pct.1,A6,0.604
same,Stk40 pct.1,A6,0.382
same,Tiparp pct.1,A6,0.346
same,Tmem205 pct.1,A6,0.695
same,Tmsb4x pct.1,A6,0.332
same,Tnfrsf1a pct.1,A6,0.508
same,Tnfrsf12a pct.1,A6,0.623
same,Tra2a pct.1,A6,0.337
same,Trp53inp1 pct.1,A6,0.637
same,Ttc36 pct.1,A6,0.768
same,Ttr pct.1,A6,0.993
same,Tubb2a pct.1,A6,0.618
same,Tubb6 pct.1,A6,0.368
same,Txnrd1 pct.1,A6,0.838
same,Tyrobp pct.1,A6,0.189
same,Ubc pct.1,A6,0.573
same,Ugdh pct.1,A6,0.721
same,Ugt2b5 pct.1,A6,0.847
same,Ugt2b36 pct.1,A6,0.745
same,Uox pct.1,A6,0.905
same,Upp2 pct.1,A6,0.274
same,Uqcr11 pct.1,A6,0.606
same,Urah pct.1,A6,0.525
same,Wbp1l pct.1,A6,0.697
same,Xbp1 pct.1,A6,0.692
same,Ywhag pct.1,A6,0.518
same,mmu-mir-6240 pct.1,A6,0.413
same,mt-Co2 pct.1,A6,0.2
same,mt-Nd1 pct.1,A6,0.983
same,mt-Nd4 pct.1,A6,0.964
same,n-R5-8s1 pct.1,A6,0.308
same,2-Mar avg_logFC,A6 vs UT,−0.5599
same,0610005C13Rik avg_logFC,A6 vs UT,−0.4251
same,0610005C13Rik pct.1,A6 vs UT,0.427
same,0610007P14Rik A6logFC,A6 vs UT,−0.257
same,1110001J03Rik avg_logFC,A6 vs UT,−0.4328
same,1110001J03Rik pct.1,A6 vs UT,0.215
same,1110058L19Rik A6logFC,A6 vs UT,−0.2581
same,1500011K16Rik avg_logFC,A6 vs UT,−0.3296
same,1500011K16Rik pct.1,A6 vs UT,0.095
same,1600014C10Rik avg_logFC,A6 vs UT,−0.4982
same,1600014C10Rik pct.1,A6 vs UT,0.167
same,1700017B05Rik avg_logFC,A6 vs UT,0.3307
same,1700017B05Rik pct.1,A6 vs UT,0.255
same,2010003K11Rik avg_logFC,A6 vs UT,0.5884
same,2410015M20Rik avg_logFC,A6 vs UT,−0.4021
same,2410015M20Rik pct.1,A6 vs UT,0.344
same,2810007J24Rik avg_logFC,A6 vs UT,−0.9143
same,2810428I15Rik avg_logFC,A6 vs UT,−0.2631
same,2810428I15Rik pct.1,A6 vs UT,0.2
same,4931406C07Rik A6logFC,A6 vs UT,−0.2544
same,4931406C07Rik avg_logFC,A6 vs UT,−0.2544
same,4931406C07Rik pct.1,A6 vs UT,0.616
same,4932438A13Rik A6logFC,A6 vs UT,0.2879
same,4932438A13Rik avg_logFC,A6 vs UT,0.2879
same,4932438A13Rik pct.1,A6 vs UT,0.329
same,8430408G22Rik avg_logFC,A6 vs UT,−0.5021
same,2810428115Rik A6logFC,A6 vs UT,−0.2631
same,Aadac avg_logFC,A6 vs UT,−0.62
same,Aadat A6logFC,A6 vs UT,−0.3186
same,Aass avg_logFC,A6 vs UT,0.4775
same,Abca1 avg_logFC,A6 vs UT,0.7245
same,Abcb11 A6logFC,A6 vs UT,−0.2618
same,Abcb11 avg_logFC,A6 vs UT,−0.2618
same,Abcb11 pct.1,A6 vs UT,0.618
same,Abcc2 A6logFC,A6 vs UT,0.2897
same,Abcd3 A6logFC,A6 vs UT,−0.2718
same,Abce1 A6logFC,A6 vs UT,0.28
same,Abce1 avg_logFC,A6 vs UT,0.28
same,Abce1 pct.1,A6 vs UT,0.437
same,Abcf1 A6logFC,A6 vs UT,0.3032
same,Abcf1 avg_logFC,A6 vs UT,0.3032
same,Abcf1 pct.1,A6 vs UT,0.458
same,Abcg2 A6logFC,A6 vs UT,−0.2809
same,Abcg2 avg_logFC,A6 vs UT,−0.2809
same,Abcg2 pct.1,A6 vs UT,0.294
same,Abhd2 avg_logFC,A6 vs UT,0.4844
same,Acaa1a A6logFC,A6 vs UT,−0.3018
same,Acaa1a avg_logFC,A6 vs UT,−0.3018
same,Acaa1a pct.1,A6 vs UT,0.475
same,Acaa1b avg_logFC,A6 vs UT,−0.7328
same,Acads A6logFC,A6 vs UT,−0.3242
same,Acat3 A6logFC,A6 vs UT,−0.3115
same,Acat3 avg_logFC,A6 vs UT,−0.3115
same,Acat3 pct.1,A6 vs UT,0.427
same,Acot13 A6logFC,A6 vs UT,−0.2886
same,Acsl1 avg_logFC,A6 vs UT,−0.3434
same,Acsl1 pct.1,A6 vs UT,0.752
same,Acsl4 avg_logFC,A6 vs UT,0.2985
same,Acsl4 pct.1,A6 vs UT,0.427
same,Acsm1 avg_logFC,A6 vs UT,−0.3692
same,Acsm1 pct.1,A6 vs UT,0.527
same,Acsm5 A6logFC,A6 vs UT,−0.2614
same,Acsm5 avg_logFC,A6 vs UT,−0.2614
same,Acsm5 pct.1,A6 vs UT,0.236
same,Actr3 A6logFC,A6 vs UT,0.276
same,Actr3 avg_logFC,A6 vs UT,0.276
same,Actr3 pct.1,A6 vs UT,0.36
same,Acy3 avg_logFC,A6 vs UT,−0.3137
same,Acy3 pct.1,A6 vs UT,0.131
same,Adamts1 avg_logFC,A6 vs UT,0.2826
same,Adamts1 pct.1,A6 vs UT,0.2
same,Adck3 avg_logFC,A6 vs UT,−0.8761
same,Adh1 avg_logFC,A6 vs UT,−1.255
same,Adh4 avg_logFC,A6 vs UT,−0.5269
same,Adh5 avg_logFC,A6 vs UT,−0.4914
same,Adh5 pct.1,A6 vs UT,0.649
same,Adipor2 avg_logFC,A6 vs UT,−0.4738
same,Adipor2 pct.1,A6 vs UT,0.578
same,Aes A6logFC,A6 vs UT,−0.2642
same,Aes avg_logFC,A6 vs UT,−0.2642
same,Aes pct.1,A6 vs UT,0.535
same,Aff4 avg_logFC,A6 vs UT,0.6163
same,Aff4 pct.1,A6 vs UT,0.537
same,Agmat avg_logFC,A6 vs UT,−0.4718
same,Agmat pct.1,A6 vs UT,0.339
same,Agpat2 A6logFC,A6 vs UT,−0.2982
same,Agpat9 avg_logFC,A6 vs UT,0.327
same,Agxt A6logFC,A6 vs UT,−0.2584
same,Agxt avg_logFC,A6 vs UT,−0.2584
same,Agxt pct.1,A6 vs UT,0.601
same,Akap13 avg_logFC,A6 vs UT,0.4953
same,Akap13 pct.1,A6 vs UT,0.406
same,Akr1c6 avg_logFC,A6 vs UT,−1.586
same,Akr1c14 avg_logFC,A6 vs UT,−0.5186
same,Akr1c14 pct.1,A6 vs UT,0.413
same,Akr1c20 avg_logFC,A6 vs UT,−0.5542
same,Akr1d1 avg_logFC,A6 vs UT,−0.2789
same,Akr1d1 pct.1,A6 vs UT,0.332
same,Akr1e1 A6logFC,A6 vs UT,−0.2582
same,Alad avg_logFC,A6 vs UT,−0.4206
same,Alad pct.1,A6 vs UT,0.286
same,Alb avg_logFC,A6 vs UT,0.4203
same,Alcam A6logFC,A6 vs UT,0.3238
same,Alcam avg_logFC,A6 vs UT,0.3238
same,Alcam pct.1,A6 vs UT,0.396
same,Aldh1a1 avg_logFC,A6 vs UT,−0.4788
same,Aldh3a2 avg_logFC,A6 vs UT,−0.8342
same,Aldh4a1 A6logFC,A6 vs UT,−0.2907
same,Aldh4a1 avg_logFC,A6 vs UT,−0.2907
same,Aldh4a1 pct.1,A6 vs UT,0.425
same,Aldh8a1 avg_logFC,A6 vs UT,−0.6837
same,Aldob avg_logFC,A6 vs UT,0.3153
same,Aldob pct.1,A6 vs UT,0.998
same,Amacr avg_logFC,A6 vs UT,−0.4136
same,Amacr pct.1,A6 vs UT,0.294
same,Anapc13 A6logFC,A6 vs UT,−0.3642
same,Ang avg_logFC,A6 vs UT,−0.6629
same,Anxa5 A6logFC,A6 vs UT,0.3654
same,Apoa2 avg_logFC,A6 vs UT,−0.5428
same,Apoa4 avg_logFC,A6 vs UT,1.368
same,Apob avg_logFC,A6 vs UT,0.5802
same,Apobec1 avg_logFC,A6 vs UT,0.3051
same,Apobec1 pct.1,A6 vs UT,0.239
same,Apoc1 avg_logFC,A6 vs UT,−0.8713
same,Apoc3 avg_logFC,A6 vs UT,−0.7688
same,Apoe avg_logFC,A6 vs UT,−0.369
same,Apof A6logFC,A6 vs UT,−0.2522
same,Apof avg_logFC,A6 vs UT,−0.2522
same,Apof pct.1,A6 vs UT,0.759
same,Apoh avg_logFC,A6 vs UT,−0.2623
same,Apoh pct.1,A6 vs UT,0.924
same,Apol7a avg_logFC,A6 vs UT,−0.4923
same,App avg_logFC,A6 vs UT,0.3618
same,App pct.1,A6 vs UT,0.315
same,Aqp9 A6logFC,A6 vs UT,−0.3109
same,Arg1 avg_logFC,A6 vs UT,0.3179
same,Arg1 pct.1,A6 vs UT,0.983
same,Arhgap5 avg_logFC,A6 vs UT,0.264
same,Arhgap5 pct.1,A6 vs UT,0.506
same,Arhgdia A6logFC,A6 vs UT,0.2563
same,Arhgdia avg_logFC,A6 vs UT,0.2563
same,Arhgdia pct.1,A6 vs UT,0.317
same,Arhgef12 avg_logFC,A6 vs UT,0.5908
same,Arl4d avg_logFC,A6 vs UT,−0.5072
same,Arpc1b A6logFC,A6 vs UT,0.2597
same,Arpc1b avg_logFC,A6 vs UT,0.2597
same,Arpc1b pct.1,A6 vs UT,0.263
same,Asgr1 avg_logFC,A6 vs UT,−0.3857
same,Asgr1 pct.1,A6 vs UT,0.656
same,Ash1l avg_logFC,A6 vs UT,0.2657
same,Ash1l pct.1,A6 vs UT,0.301
